Reference: patent EP0447703A1, “Hetero polycyclic biocidal compounds, their synthesis and intermediates therefor,formulations containing them and their use in medicine” (THE WELLCOME FOUNDATION LIMITED, priority 1990, dated 1991)
Counter-ions that a name gives are not always drawn.

Legend:
P388/O tumour cells = experiment: Lymphocytic Leukemia P388/0 Test; type: in vivo, CD2-F₁ mice; conditions: for 30-Day Survivors: at optimal dose, survivors per 6 animals of the dose group; for % T/C*: ratio of median survival time treated/control x 100 at optimal dose, excluding 30 day survivors, criterion for activity T/C x 100 ≧120%
From the text: Methods for evaluating the antitumor activity of these compounds are essentially those used in the Tumour Panel by the Development Therapeutics Program, Division of Cancer Treatment, National Cancer Institute, A. Goldin et al., Methods in Cancer Research, Vol. XVI, p.165, Academic Press (1979). Some modifications, in dose level and schedule have been made to increase the testing efficiency.
(§1) CD2-F₁ mice, of the same sex weighing within 20+3g, are used for this test. Control and test animals are injected intraperitoneally with a suspension of 10⁶ viable P388/O tumour cells on day 0. In each test several dose levels which bracket the LD₂₀ for the compound are evaluated; each dose level group contains 6 animals. The test compounds are prepared either in physiologic saline containing 0.05% Tween 80 or distilled water containing 5% dextrose and are administered intraperitoneally on days, 1, 5, and 9 relative to tumor implant. Doses are on a mg/kg basis according to individual animals' body weights. the day of death for each animal is recorded, the median identified for each group and the ratios of median survival time for treated (T)/control (C) groups are calculated. The criterion for activity is T/C x 100 ≧120%.

[1] = LD20 determined in the P388/0 test; type: in vivo
Procedure: as §1

[2] = mice, intraperitoneally on days 1, 5 and 9

Compound	30-Day Survivors (P388/O tumour cells)	% T/C* (P388/O tumour cells)	LD20 ([1]; mouse, in vivo, ip)	LD20 [1, 2]
CCn1c2ccccc2c2c3c(ccc21)c(CNC(C)(CO)CO)cn3C [Example 12C, 2-(((6-Ethyl-1,6-dihydro-1-methylpyrrolo[3,2-c]carbazol-3-yl)methyl)-amino)-2-methyl-1,3-propanediol Hydrochloride 0.6 H₂O]	0/6	113%	100 mg/kg	–
CC(CO)(CO)NCc1cc2oc3ccccc3c2c2ccoc12.Cl [Example 6E, 2-(((Benzofuro(5,4-b)benzofuran-4-yl)methyl)amino)-2-methyl-1,3-propanediol Hydrochloride]	1/6	213%	–	60 mg/kg
CC(CO)(CO)NCc1ccc2oc3cc4ccoc4cc3c2c1.Cl [Example 8H, 2(((Benzofuro(5,6-b)benzofuran-8-yl)methyl)amino)-2-methyl-1,3-propanediol Hydrochloride]	0/6	200%	–	300 mg/kg
CC(CO)(CO)NCc1ccc2oc3ccc4occc4c3c2c1.Cl [Example 5E, 2-(((Benzofuro(5,4-b)benzofuran-9-yl)methyl)amino)-2-methyl-1,3-propanediol Hydrochloride]	0/6	117%	–	175 mg/kg
CC(CO)(CO)NCc1cc2c(ccc3oc4ccccc4c32)o1.Cl [Example 7B, 2-(((Benzofuro(5,4-b)benzofuran-2-yl)methyl)amino)-2-methyl-1,3-propanediol hydrochloride]	0/6	138%	–	175 mg/kg
Cl.Cn1cc(CNC(C)(CO)CO)c2ccc3sc4ccccc4c3c21 [Example 11E, 2-Methyl-2-(((1-methyl-1H-[1]benzothieno[2,3]indol-3-yl)methyl)amino)-1,3-propanediol Hydrochloride]	0/6	135%	–	250 mg/kg
CC(CO)(CO)NCc1c2ccoc2cc2c1oc1ccccc12.Cl [Example 9E, 2-(((Benzofuro(5,6-b)benzofuran-4-yl)methyl)amino)-2-methyl 1,3-propanediol Hydrochloride]	0/6	192%	–	75 mg/kg
Cl.Cn1c2ccccc2c2oc3c(CNC(C)(CO)CO)cccc3c21 [Example 1E, 2-Methyl-2-(((10-methyl-10H-benzofuro(3,2-b)indol-6-yl)methyl)amino)-1,3-propanediol Hydrochloride]	0/6	210%	–	150 mg/kg
CC(CO)(CO)NCc1ccc2c(c1)oc1ccc3occc3c12.Cl [Example 4M, 2(((Benzofuro(5,4-b)benzofuran-8-yl)methyl)amino)-2-methyl-1,3-propanediol Hydrochloride]	0/6	117%	–	>450 mg/kg
Cl.Cn1cc(CNC(C)(CO)CO)c2ccc3oc4ccccc4c3c21 [Example 13E, 2-Methyl-2-(((1-methyl-1H-benzofuro[2,3-g]indole-3-yl)methyl)amino)-1,3-propanediol Hydrochloride]	0/6	120%	–	115 mg/kg
Cn1c2cccc(CNC(C)(CO)CO)c2c2sc3ccccc3c21 [Example 15D, 2-(((10-Methyl-10H-[1]benzothieno[3,2-b]indol-6-yl)methyl)amino)-2-methyl-1,3-propanediol Hydrochloride]	5/6	140%	225 mg/kg	–
Cl.Cn1cc(CNC(C)(CO)CO)c2c3sc4ccccc4c3ccc21 [Example 14B, 2-Methyl-2-(((3-methyl-3H-[1]benzothieno[2,3-e]indol-1-yl)methyl)amino)-1,3-propanediol Hydrochloride]	0/6	215%	–	150 mg/kg
Cn1c2ccccc2c2cc(CNC(C)(CO)CO)c3sccc3c21 [Example 2C, 2-Methyl-2-(((10-methyl-10H-thieno(3,2-a)carbazol-4-yl)methyl)amino)-1,3-propanediol methanesulfonate]	0/6	195%	375 mg/kg	–
CC(CO)(CO)NCc1cc2cc3oc4ccccc4c3cc2o1.Cl [Example 10B, 2-(((Benzofuro(5,6-b)benzofuran-2-yl)methyl)amino)-2-methyl-1,3-propanediol Hydrochloride]	0/6	100%	–	>675 mg/kg
Cn1c2ccccc2c2sc3cc(CNC(C)(CO)CO)ccc3c21 [Example 16, 2-(((10-Methyl-10H-[1]benzothieno[3,2-b]indol-3-yl)methyl)amino)-2-methyl-1,3-propanediol hydrochloride]	0/6	170%	250 mg/kg	–
Cn1c2ccccc2c2ccc3sc(CNC(C)(CO)CO)cc3c21 [Example 3B, 2-Methyl-2-(((10-methyl-10H-thieno(3,2-a)carbazol-2-yl)methyl)amino)-1,3-propanediol methanesulfonate]	0/6	195%	375 mg/kg	–
